Source: patent US11141403B2, “Benzimidazoles and indoles as taro inhibitors” (MERCK SHARP & DOHME CORP., priority 2015, dated 2021)
“And” between values parts separate entries of the source, which are not always exact repeats. Equal entries are not always repeated. Where two headings read alike, the source gives them in different places.

Experiments:
MRSA COL (MB 5393) = test: In Vivo Murine Systemic Infection Model; design: species or system Staphylococcus aureus; details: for Bacteria recovered: tid, neutropenic Balb/C mice, 24 h post challenge; for Fold reduction vs. vehicle alone: kidney cfu
Protocol: The murine systemic infection model determines the therapeutic efficacy of TarO inhibitor/β-lactam combinations in vivo. Staphylococci bacteria can cause a systemic infection and establish a robust growth in the kidneys of the infected animal. MRSA COL can establish an infection even in the presence of β-lactam antibiotic due MRSA COL resistance to β-lactam antibiotics.
Female Balb/C mice were rendered neutropenic (immune suppressed) with a single 250 mg/kg intraperitoneal (ip) dose of cyclophosphamide on […]. MRSA COL (MB 5393) was grown for 16 hours in trypticase soy broth (TSB) at 37° C. and 0.5 mL of diluted culture (˜1×10^4 cfu) was administered intraperitoneal (IP). The TarO inhibitor and β-lactam antibiotic were administered alone or in combination by subcutaneous route at 2, 5 and 8 hr. post challenge (sc, tid). Twenty four hours post challenge mice were euthanized and the kidneys harvested, weighed, homogenized and plated to measure the total number of bacteria recovered as colony forming unit (CFU) remaining in compound treated groups as compared to vehicle (saline) or β-lactam antibiotic alone groups (statistical analyses was determined by one way ANOVA).

MRSA COL (MB5393) = test: TarO Inhibitor/β-Lactam Synergy Assay; type: cell-based, Staphylococcus aureus; details: 20 hours; for IC95: TarO inhibitor alone, OD600, 95% growth inhibition, read-out: MITC95 TarO inhibitor alone, Bacteria: SA_MB5393; for MITC95 TarO inhibitor + 4 μg/mL IPM; Bacteria: SA_MB5393: in combination with 4 μg/mL imipenem; for MITC95 TarO inhibitor + 4 μg/mL IPM; Bacteria: SA_MB5393 / MITC95 TarO inhibitor + 8 μg/mL DCX; Bacteria: SA_MB5393: OD600; for MITC95 TarO inhibitor + 8 μg/mL DCX; Bacteria: SA_MB5393: in combination with 8 μg/mL dicloxacillin
Protocol: The TarO inhibitor/β-lactam synergy assay was performed to measure the re-sensitization of methicillin-resistant Staphylococci bacteria (MB5393: MRSA COL) to β-lactam antibiotics by TarO inhibitors. MRSA COL is a hospital-acquired penicillinase-negative clinically isolated strain commonly used in Staphylococcus aureus studies and is fully resistant to the antimicrobial bioactivity of β-lactam antibiotics, including but not limited to imipenem and dicloxacillin. […] MRSA COL is fully refractory to β-lactam antibiotic effect at the current clinical breakpoint concentrations and as such MRSA COL is fully viable at these concentrations.
The β-lactam antibiotic concentration was fixed at the clinical breakpoint (imipenem 4 μg/ml or dicloxacillin 8 μg/ml) and the TarO inhibitors were titrated by 2 fold starting from the highest concentration of 200 μM with final DMSO concentration of 2% in the assay. 5×10^5 colony forming unit of MRSA COL in cation-adjusted Mueller Hinton broth (CAMHB) was then mixed and the assay plate was incubated for 20 hours at 37° C. without shaking. After 20 hours, the optical density at 600 nm (OD600) was read for all wells to determine relative growth of MRSA COL.

| Compound | IC95 (MRSA COL (MB5393); Staphylococcus aureus) [µM] | MITC95 TarO inhibitor + 4 μg/mL IPM; Bacteria: SA_MB5393 (MRSA COL (MB5393)) [µM] | MITC95 TarO inhibitor + 8 μg/mL DCX; Bacteria: SA_MB5393 (MRSA COL (MB5393)) [µM] | other results |
| --- | --- | --- | --- | --- |
| C[C@@H](O)[C@H]1C(=O)N2C(C(=O)O)=C(SCCN=CN)C[C@H]12 [imipenem, reference compound] | – | – | – | Bacteria recovered (MRSA COL (MB 5393); Imipenem alone (5 mg/kg) sc): 1.0 × 10^6 cfu/g kidney; Fold reduction vs. vehicle alone (MRSA COL (MB 5393); Imipenem alone (5 mg/kg)): 19 |
| CCN(C(=O)CCn1c(-c2ccc(OCC(F)(F)F)cc2)nc2ccccc21)C1CCCCC1 [Example 34, N-cyclohexyl-N-ethyl-3-{2-[4-(2,2,2-trifluoroethoxy)phenyl]-1H-benzimidazol-1-yl}propanamide] | > 200 | 0.25 | 0.54 | – |
| CCN(C(=O)CCn1c2cc(-c3ccccc3)ccc2nc1[C@H]1CC[C@H](CC)CC1)C1CCCCC1 [Example 24, N-cyclohexyl-N-ethyl-3-(2-(trans-4-ethylcyclohexyl)-6-phenyl-1H-benzo[d]imidazol-1-yl)propanamide] | > 200 | 0.04 | 0.46 | – |
| CCN(C(=O)CCn1c(C2CCCN(c3cccc(OC)n3)C2)nc2ccccc21)C1CCCCC1 (centres unmarked) [Example 47, N-cyclohexyl-N-ethyl-3-{2-[1-(6-methoxypyridin-2-yl)piperidin-3-yl]-1H-benzimidazol-1-yl}propanamide] | 100 | 0.10 | 0.20 | – |
| CCN(C(=O)CCn1c(C2CCCN(C(=O)OC(C)(C)C)C2)nc2cc(F)ccc21)C1CCCCC1 (centres unmarked) [Example 15, tert-butyl 3-(1-{3-[cyclohexyl(ethyl)amino]-3-oxopropyl}-5-fluoro-1H-benzimidazol-2-yl)piperidine-1-carboxylate] | – | 0.52 | 4.17 | IC95 (MRSA COL (MB5393)): >200 µM |
| CC1(C)[C@@H]2CC[C@@]1(C)[C@H](NC(=O)CCn1c(C3CCCCC3)nc3ccccc31)C2 [Example 37, 3-(2-cyclohexyl-1H-benzimidazol-1-yl)-N-[(1R,2R,4R)-1,7,7-trimethylbicyclo[2.2.1]hept-2-yl]propanamide] | > 200 | 1.69 | 12.50 | Bacteria recovered (MRSA COL (MB 5393); Example 37 (100 mg/kg) + imipenem (5 mg/kg) sc): 2.6×10^4 cfu/g kidney; Fold reduction vs. vehicle alone (MRSA COL (MB 5393); Example 37 (100 mg/kg) + imipenem (5 mg/kg)): 730 and 730.8; Bacteria recovered (MRSA COL (MB 5393); Example 37 alone (100 mg/kg) sc): 1.5×10^7 cfu/g kidney; Fold reduction vs. vehicle alone (MRSA COL (MB 5393); Example 37 alone (100 mg/kg)): 1.3 |
| CCN(C(=O)CCn1c2cccc(N3CCOCC3)c2nc1[C@H]1CC[C@H](CC)CC1)C1CCCCC1 [Example 32, N-cyclohexyl-N-ethyl-3-[2-(trans-4-ethylcyclohexyl)-4-morpholin-4-yl-1H-benzimidazol-1-yl]propanamide] | > 200 | 20.83 | 20.83 | – |
| CCN(C(=O)CCn1c2cc(Br)ccc2nc1[C@H]1CC[C@H](CC)CC1)C1CCCCC1 [Example 8, 3-[6-bromo-2-(trans-4-ethylcyclohexyl)-1H-benzimidazol-1-yl]-N-cyclohexyl-N-ethylpropanamide] | > 200 | 0.06 | 0.22 | – |
| CCN(C(=O)CCn1c(C2CCCCC2)nc2ccccc21)C1CCCCC1 [Example 35, N-cyclohexyl-3-(2-cyclohexyl-1H-benzimidazol-1-yl)-N-ethylpropanamide] | > 200 | 1.95 | 9.38 | – |
| CCN(C(=O)CCn1c(N2CCC(C(C)(C)C)CC2)nc2ccccc21)C1CCCCC1 [Example 58, 3-[2-(4-tert-butylpiperidin-1-yl)-1H-benzimidazol-1-yl]-N-cyclohexyl-N-ethylpropanamide] | > 200 | 0.02 | 0.13 | – |
| CCN(C(=O)CCn1c(C2CCN(C(=O)OC(C)(C)C)C2)nc2cc(F)ccc21)C1CCCCC1 (centres unmarked) [Example 21, tert-butyl 3-(1-{3-[cyclohexyl(ethyl)amino]-3-oxopropyl}-5-fluoro-1H-benzimidazol-2-yl)pyrrolidine-1-carboxylate] | > 200 | 0.78 | 13.54 | – |
| CC1(C)[C@@H]2CC[C@@]1(C)[C@H](NC(=O)CCn1c3ccccc3nc1[C@H]1CC[C@@H](C(C)(C)C)CC1)C2 [Example 33, 3-[2-(cis-4-tert-butylcyclohexyl)-1H-benzimidazol-1-yl]-N-[(1R,2R,4R)-1,7,7-trimethylbicyclo[2.2.1]hept-2-yl]propanamide] | > 200 | 0.06 | – | – |
| CCN(C(=O)CCn1c(N2CCC(C)CC2)nc2ccccc21)C1CCCCC1 [Example 57, N-cyclohexyl-N-ethyl-3-[2-(4-methylpiperidin-1-yl)-1H-benzimidazol-1-yl]propanamide] | > 200 | 1.30 | 26 | – |
| CCN(C(=O)CCn1c2c(F)cccc2nc1[C@H]1CC[C@H](CC)CC1)C1CCCCC1 [Example 11, N-cyclohexyl-N-ethyl-3-[2-(trans-4-ethylcyclohexyl)-7-fluoro-1H-benzimidazol-1-yl]propanamide] | > 200 | 0.40 | 1.04 | – |
| CC(C)(C)OC(=O)NCC1CCC(c2nc3ccccc3n2CCC(=O)NC2C[C@H]3CC[C@]2(C)C3(C)C)CC1 (stereo partly drawn) [Example 40, tert-butyl ({4-[1-(3-oxo-3-{[(1R,4R)-1,7,7-trimethylbicyclo[2.2.1]hept-2-yl]amino}propyl)-1H-benzimidazol-2-yl]cyclohexyl}methyl) carbamate] | > 200 | 2.34 | 9.38 | – |
| CCN(C(=O)CCn1c2ccncc2nc1[C@H]1CC[C@H](CC)CC1)C1CCCCC1 [Example 17, N-cyclohexyl-N-ethyl-3-[2-(trans-4-ethylcyclohexyl)-1H-imidazo[4,5-c]pyridin-1-yl]propanamide] | > 200 | 0.98 | 6.25 | – |
